In PubChem BioAssay AID328 (DTP/NCI, 2004) one finds T/C data, which are given here for 23 molecules.

Values joined by “and” are separate entries in the source; they are usually repeats but may differ in a detail not shown here. Equal values may be shown once. Inconclusive results and toxic doses are left out.

This experiment concerns BDF1 mice, P388 leukemia ip, median survival T/C. As to the kind of experiment: NCI In Vivo Anticancer Drug Screen. Data for tumor model P388 Leukemia (intraperitoneal) in B6D2F1 (BDF1) mice. As to conditions: endpoint: median survival time, higher = longer survival. The method, boiled down: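 Mice carrying the transplantable tumour receive compound or vehicle. Survival is followed in each arm, and the treated measure is divided by the vehicle measure.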

Setting [1] is: dose: 12.5 mg/kg/injection, schedule: Q01DX009 (ip), vehicle: saline.
[2] abbreviates: dose: 25.0 mg/kg/injection, schedule: Q01DX009 (ip), vehicle: saline.
Setting [3] is: dose: 50.0 mg/kg/injection, schedule: Q01DX009 (ip), vehicle: saline.
[4] abbreviates: dose: 50.0 mg/kg/injection, schedule: Q04DX003 (ip), vehicle: saline.
The mark [5] stands for this setting: dose: 50.0 mg/kg/injection, schedule: Q04DX003 (ip), vehicle: saline with Tween-80.
Setting [6] is: dose: 100.0 mg/kg/injection, schedule: Q04DX003 (ip), vehicle: saline with Tween-80.
Where [7] appears, read: dose: 200.0 mg/kg/injection, schedule: Q04DX003 (ip), vehicle: saline with Tween-80.
The mark [8] stands for this setting: dose: 400.0 mg/kg/injection, schedule: Q04DX003 (ip), vehicle: saline with Tween-80.
[9] abbreviates: dose: 100.0 mg/kg/injection, schedule: Q01DX009 (ip), vehicle: saline.
The mark [10] stands for this setting: dose: 200.0 mg/kg/injection, schedule: Q01DX009 (ip), vehicle: saline.
[11] abbreviates: dose: 100.0 mg/kg/injection, schedule: Q01DX009 (ip), vehicle: saline with Tween-80.
The mark [12] stands for this setting: dose: 200.0 mg/kg/injection, schedule: Q01DX009 (ip), vehicle: saline with Tween-80.
Setting [13] is: dose: 400.0 mg/kg/injection, schedule: Q01DX009 (ip), vehicle: saline with Tween-80.
Where [14] appears, read: dose: 50.0 mg/kg/injection, schedule: Q01DX009 (ip), vehicle: saline with Tween-80.
Where [15] appears, read: dose: 200.0 mg/kg/injection, schedule: Q01DX001 (ip), vehicle: saline with Tween-80.
[16] abbreviates: dose: 400.0 mg/kg/injection, schedule: Q04DX003 (ip), vehicle: saline sonified.
[17] abbreviates: dose: 100.0 mg/kg/injection, schedule: Q04DX003 (ip), vehicle: saline.
[18] abbreviates: dose: 200.0 mg/kg/injection, schedule: Q04DX003 (ip), vehicle: saline.

As for `CC1=CC(=O)OC2(C1)CC1CCC2CN1C` (stereo not given), the T/C under setting [1] is 110 % of control; the T/C under setting [2] is 100 % of control; the T/C (dose: 25.0 mg/kg/injection, schedule: Q04DX003 (ip), vehicle: saline) was 100 % of control; the T/C under setting [3] is 100 % of control; the T/C under setting [4] is 104 % of control.
`Cc1ccsc1/C=N/NC(N)=S`: the T/C runs as follows: under setting [5], 117 % of control; under setting [6], 117 % of control; under setting [7], 115 % of control; under setting [8], 92 % of control.
Regarding `Cc1ccc(S(=O)(=O)N(CCO)CC(C)O)cc1` (stereo not given), the T/C by setting is: (dose: 100.0 mg/kg/injection, schedule: Q01DX009 (ip), vehicle: Klucel (hydroxypropylcellulose) (HPC)) 100 % of control; (dose: 200.0 mg/kg/injection, schedule: Q01DX009 (ip), vehicle: Klucel (hydroxypropylcellulose) (HPC)) 100 % of control; (dose: 400.0 mg/kg/injection, schedule: Q01DX009 (ip), vehicle: Klucel (hydroxypropylcellulose) (HPC)) 100 % of control.
With `O=S(=O)(O/C1=C/CCCCCC1)C(F)(F)C(F)(F)C(F)(F)C(F)(F)F`, the T/C runs as follows: under setting [3], 107 % of control; under setting [9], 109 % of control; under setting [10], 109 % of control.
In the case of `CCC1c2ccc3cc(OC)ccc3c2CC1CC(=O)O` (stereo not given), the T/C runs as follows: (dose: 100.0 mg/kg/injection, schedule: Q01DX001 (ip), vehicle: other) 100 % of control; (dose: 200.0 mg/kg/injection, schedule: Q01DX001 (ip), vehicle: other) 110 % of control; (dose: 400.0 mg/kg/injection, schedule: Q01DX001 (ip), vehicle: other) 105 % of control.
Consider `O=C(O)c1ccccc1C(=O)NNC(=O)c1ccccc1C(=O)O`, for which the T/C runs as follows: under setting [11], 100 % of control; under setting [6], 90 % of control; under setting [12], 95 % of control; under setting [7], 113 % of control; under setting [13], 90 % of control; under setting [8], 109 % of control.
On to `N#Cc1cccc(CC(O)(c2ccccc2)c2ccccc2)c1`, for which the T/C under setting [14] is 89 % of control, the T/C under setting [11] is 87 % of control and the T/C under setting [12] is 95 % of control.
Regarding `O=C(/C=C/c1ccncc1)c1cccc2ccccc12`, the T/C runs as follows: under setting [1], 102 % of control; under setting [2], 108 % of control; under setting [3], 100 % of control; under setting [9], 116 % of control.
As for `CSc1sc2ccccc2[n+]1C`, the T/C by setting is: under setting [2], 100 % of control and 104 % of control; under setting [3], 90 % of control and 120 % of control; under setting [9], 86 % of control and 119 % of control.
Regarding `CCCCOCN(COCCCC)c1ncccn1`, the T/C under setting [14] is 108 % of control, the T/C under setting [11] was 106 % of control and the T/C under setting [12] is 104 % of control.
Turning to `COC(=O)CCN1CC1`, the T/C by setting is: (dose: 100.0 mg/kg/injection, schedule: Q01DX001 (ip), vehicle: saline with Tween-80) 101 % of control; under setting [15], 107 % of control; (dose: 400.0 mg/kg/injection, schedule: Q01DX001 (ip), vehicle: saline with Tween-80) 92 % of control.
Turning to `C[C@H](CCC(=O)O)[C@H]1CC[C@H]2[C@@H]3[C@H](O)C[C@@H]4C[C@H](O)CC[C@]4(C)[C@H]3C[C@H](O)[C@]12C` (tested in a mixture with another compound), the T/C under setting [9] was 155 % of control; the T/C (dose: 132.0 mg/kg/injection, schedule: Q04DX003 (ip), vehicle: saline sonified) is 122 % of control; the T/C (dose: 200.0 mg/kg/injection, schedule: Q01DX009 (ip), vehicle: other) was 209 % of control; the T/C under setting [10] is 190 % of control; the T/C (dose: 300.0 mg/kg/injection, schedule: Q04DX003 (ip), vehicle: saline sonified) was 166 % of control; the T/C under setting [16] is 172 % of control.
Take `CC(C)C(Sc1nc(N)nc2nc[nH]c12)C(=O)O` (stereo not given): the T/C reads like this: (dose: 100.0 mg/kg/injection, schedule: Q04DX003 (ip), vehicle: saline sonified) 110 % of control; (dose: 200.0 mg/kg/injection, schedule: Q04DX003 (ip), vehicle: saline sonified) 120 % of control; under setting [16], 105 % of control.
In the case of `COC(=O)c1cc(=O)nc(N/N=C/c2ccccc2)s1`, the T/C runs as follows: (dose: 50.0 mg/kg/injection, schedule: Q01DX005 (ip), vehicle: saline with Tween-80) 109 % of control; (dose: 100.0 mg/kg/injection, schedule: Q01DX005 (ip), vehicle: saline with Tween-80) 110 % of control; (dose: 200.0 mg/kg/injection, schedule: Q01DX005 (ip), vehicle: saline with Tween-80) 109 % of control.
Take `C=CCCCCCCCCC(=O)NCC1CC1`: the T/C by setting is: under setting [11], 100 % of control; under setting [12], 90 % of control; under setting [13], 86 % of control.
For the molecule `O=C(c1ccccc1)C(Cl)C(=O)c1ccccc1`, the T/C is, setting by setting: (dose: 50.0 mg/kg/injection, schedule: Q01DX001 (ip), vehicle: saline with Tween-80) 108 % of control; (dose: 65.0 mg/kg/injection, schedule: Q01DX001 (ip), vehicle: saline with Tween-80) 120 % of control; (dose: 150.0 mg/kg/injection, schedule: Q01DX001 (ip), vehicle: saline with Tween-80) 101 % of control; under setting [15], 105 % of control.
Regarding `Br/C(=N\Nc1nn[nH]n1)c1ccccc1`, the T/C by setting is: under setting [6], 87 % of control; under setting [7], 91 % of control; under setting [8], 91 % of control.
With `ClC1=C(Cl)C(Cl)(C2(Cl)C(Cl)=C(Cl)C(Cl)=C2Cl)C(Cl)=C1Cl`, the T/C reads like this: (dose: 100.0 mg/kg/injection, schedule: Q01DX009 (ip), vehicle: gum acacia) 123 % of control; (dose: 100.0 mg/kg/injection, schedule: Q04DX003 (ip), vehicle: gum acacia) 108 % of control; (dose: 200.0 mg/kg/injection, schedule: Q04DX003 (ip), vehicle: gum acacia) 116 % of control; (dose: 400.0 mg/kg/injection, schedule: Q04DX003 (ip), vehicle: gum acacia) 104 % of control.
As to `O=C(O)c1ccc(C(=O)O)c([N+](=O)[O-])c1`, the T/C under setting [4] was 100 % of control, the T/C under setting [17] was 100 % of control and the T/C under setting [18] is 100 % of control.
Regarding `O=C(CC(c1ccccc1)c1c(O)c2ccccc2oc1=O)c1ccccc1` (stereo not given), the T/C was 108 % of control (dose: 0.39 mg/kg/injection, schedule: Q01DX009 (ip), vehicle: saline with Tween-80); 106 % of control (dose: 0.78 mg/kg/injection, schedule: Q01DX009 (ip), vehicle: saline with Tween-80); 97 % of control (dose: 1.56 mg/kg/injection, schedule: Q01DX009 (ip), vehicle: saline with Tween-80); 90 % of control (dose: 3.12 mg/kg/injection, schedule: Q01DX009 (ip), vehicle: saline with Tween-80); 120 % of control (dose: 12.5 mg/kg/injection, schedule: Q04DX003 (ip), vehicle: saline with Tween-80); 109 % of control (dose: 25.0 mg/kg/injection, schedule: Q04DX003 (ip), vehicle: saline with Tween-80). Further, the T/C under setting [5] was 92 % of control, the T/C under setting [6] is 101 % of control and the T/C under setting [7] is 108 % of control.
On to `COc1ccc(OC)c2c(/C=C/c3ccc(N(C)C)cc3)ccnc12`, for which the T/C was 108 % of control (dose: 12.5 mg/kg/injection, schedule: Q01DX009 (ip), vehicle: saline with Tween-80); 103 % of control (dose: 25.0 mg/kg/injection, schedule: Q01DX009 (ip), vehicle: saline with Tween-80); 94 % of control and 110 % of control under setting [14]; 103 % of control under setting [11]; 91 % of control under setting [12].
For `CCC(CO)NC(=O)/C=C/c1cc(OC)ccc1OC` (stereo not given), under setting [13], the T/C is 91 % of control.
As to `CCCCSCC(N)C(=O)OC` (stereo not given), the T/C by setting is: under setting [9], 103 % of control; under setting [17], 100 % of control; under setting [10], 111 % of control; under setting [18], 104 % of control; (dose: 400.0 mg/kg/injection, schedule: Q01DX009 (ip), vehicle: saline) 106 % of control; (dose: 400.0 mg/kg/injection, schedule: Q04DX003 (ip), vehicle: saline) 109 % of control.
